Experimental data from US6329189A, “Enzyme producing tartaric acid ether compound and process for producing tartaric acid ether compounds using this enzyme” (Kikkoman Corporation, priority 1998, dated 2001).
Counter-ions that a name gives are not always drawn.

Tests used:
[1] = Solubility in solvents of the enzyme reaction products; type: physicochemical; conditions: water, methanol, DMSO
[2] = tested on: enzyme producing tartaric acid ether compound; assay: Substrate specificity of the present enzyme in the presence of (±)-trans-epoxysuccinic acid; type: biochemical, Aspergillus oryzae; conditions: for Relative activity (%): substrate in the presence of (±)-trans-epoxysuccinic acid, decrement of genistein as substrate expressed as 100; for Action of the enzyme to the phenolic hydroxyl groups of the substrate (in words): in the presence of (±)-trans-epoxysuccinic acid
Protocol: The activities of the present enzyme to the various substrate compounds having a phenolic hydroxyl group(s) shown in Table 1 in the presence of (±)-trans-epoxysuccinic acid were measured and shown as relative activities (%) with reference to the activity to genistein which was expressed as 100. The measurement of activity was conducted under the same conditions as used for the determination of titer described later.
Enzyme titer was determined by the following method. The amount of the enzyme that produces 1 μmol of 2-hydroxy-3-[[5-hydroxy-3-(4-hydroxyphenyl)-4-oxo-4H-1-benzopyran-7-yl]oxy]-butanedioic acid in one minute in the reaction of the following formula (6) is expressed as 1 U. [drawing 1]
Substrate solution I: 60 mM (±)-trans-epoxysuccinic acid (Tokyo Kasei Kogyo Co., Ltd.) was dissolved in 100 ml of a 50 mM sodium acetate-acetic acid buffer (pH 6.0), and the solution was adjusted to pH 6.0 with sodium hydroxide.
Substrate solution II: Prepared by dissolving 0.3 mmol of genistein (Funakoshi Co., Ltd.) in 100 ml of dimethyl sulfoxide.
50 mmol of sodium acetate and 40 mmol of manganese sulfate were dissolved in distilled water, and the solution was adjusted to pH 6.0 with acetic acid and made one litre.
(1) 0.175 ml of the buffer, 0.1 ml of the substrate solution I and 0.01 ml of an enzyme solution were pipetted into a microtube, and the mixed solution was preincubated at 37° C. for 5 minutes.
(2) The above solution was mixed with 0.025 ml of the substrate solution II and reacted at 37° C. for 15 minutes, after which 0.01 ml of concentrated hydrochloric acid was added to stop the reaction. Used as control was a solution prepared in the same way as described above except that 0.01 ml of the buffer was added in place of 0.01 ml of the enzyme solution.
2-hydroxy-3-[[5-hydroxy-3-(4-hydroxyphenyl)-4-oxo-4H-1-benzopyran-7-yl]oxy]-butanedioic acid produced from the reaction of the formula (6) was determined by HPLC under the following conditions: […]
Column: Wakosil-II5C18HG (4.6 mm×30 mm+4.6 mm×250 mm, mfd. by Wako Pure Chemical Industries, Ltd.).
Eluent: distilled water containing 0.05% of trifluoroacetic acid and 28.8% of acetonitrile.
Detecting wavelengh: 260 nm.

[3] = molecular target: T1, histidine decarboxylase (HDC) (Homo sapiens, UniProt P19113); conditions: from JP-A-9-110857 and JP-A-10-59956; cited from earlier work
T1 sequence (P19113 1-662): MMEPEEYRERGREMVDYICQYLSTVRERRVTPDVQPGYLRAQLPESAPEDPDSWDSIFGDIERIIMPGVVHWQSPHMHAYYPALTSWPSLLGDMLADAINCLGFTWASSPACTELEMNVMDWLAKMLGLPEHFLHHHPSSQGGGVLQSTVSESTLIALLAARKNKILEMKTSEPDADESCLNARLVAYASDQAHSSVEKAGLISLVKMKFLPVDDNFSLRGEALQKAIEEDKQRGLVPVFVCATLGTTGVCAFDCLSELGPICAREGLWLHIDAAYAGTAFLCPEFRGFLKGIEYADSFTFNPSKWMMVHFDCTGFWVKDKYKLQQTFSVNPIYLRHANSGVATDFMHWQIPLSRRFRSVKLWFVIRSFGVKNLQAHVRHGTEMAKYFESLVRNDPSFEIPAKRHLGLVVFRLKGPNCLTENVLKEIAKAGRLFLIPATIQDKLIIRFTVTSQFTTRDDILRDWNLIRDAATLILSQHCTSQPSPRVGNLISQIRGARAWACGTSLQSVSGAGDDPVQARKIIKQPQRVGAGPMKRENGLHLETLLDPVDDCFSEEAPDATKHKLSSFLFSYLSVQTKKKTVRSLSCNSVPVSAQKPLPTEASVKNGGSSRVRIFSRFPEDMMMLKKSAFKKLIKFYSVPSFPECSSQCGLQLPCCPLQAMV

[4] = tested on: enzyme producing tartaric acid ether compound; assay: Km value from Lineweaver-Burk's plot; type: biochemical, Aspergillus oryzae; conditions: compound used as substrate
[5] = tested on: enzyme producing tartaric acid ether compound; assay: Influence of metallic ions on the action of the present enzyme; type: biochemical, Aspergillus oryzae; conditions: for Relative activity (%): activity with no addition = 100%; for Influence on the activity of the present enzyme (in words): presence of the ion or EDTA
Protocol: "Relative activity (%)" in Table 2 is the value relative to the activity (expressed as 100) observed when no metallic ion was added.
The activity observed with no addition of metallic ions was expressed as 100%.

Structure (SMILES)	Relative activity (%) [2]	Action of the enzyme to the phenolic hydroxyl groups of the substrate (in words) [2]	further results
O=C(O)C(O)C(Oc1ccc(-c2oc3cc(OC(C(=O)O)C(O)C(=O)O)cc(O)c3c(=O)c2O)cc1)C(=O)O (centres unmarked) [Example 3 enzyme reaction product II]	–	–	Solubility in solvents [1]: soluble in water, methanol and DMSO
O=C(O)C(O)C(Oc1cc(O)c2c(=O)c(O)c(-c3ccc(O)cc3)oc2c1)C(=O)O (centres unmarked) [Example 3 enzyme reaction product I]	–	–	Solubility in solvents [1]: soluble in water, methanol and DMSO
O=C1C(=Cc2ccc(O)c(O)c2)Oc2cc(OC(C(=O)O)C(O)C(=O)O)ccc21 (centres unmarked) [Example 2 enzyme reaction product]	–	–	Solubility in solvents [1]: soluble in water, methanol and DMSO
O=c1c(O)c(-c2ccc(O)c(O)c2)oc2cc(O)cc(O)c12 [quercetin]	31%	–	–
O=c1c(-c2ccc(O)cc2)coc2cc(O)c(O)cc12 [4',6,7-trihydroxyisoflavone]	182%	acts in a favorable way	–
O=C1COc2cc(O)ccc21 [6-hydroxy-2H-benzofuran-3-one]	135%	acts in a favorable way	–
O=C(O)C(O)C(Oc1ccc2c(=O)c(-c3ccc(O)cc3)coc2c1)C(=O)O (single isomer, unassigned) [2-hydroxy-3-[[3-(4-hydroxyphenyl)-4-oxo-4H-1-benzopyran-7-yl]oxy]-butanedioic acid]	–	–	Inhibitory action against histidine decarboxylase (HDC) [3]: prominent inhibitory action
O=c1c(-c2ccc(O)cc2)coc2cc(O)cc(O)c12 [genistein]	100%	acts in a favorable way	Km [4]: 1040 µM
Oc1cc(O)c2c(c1)OC(c1ccc(O)c(O)c1)C(O)C2 (centres unmarked) [catechin]	16%	–	–
O=c1c(O)c(-c2ccc(O)cc2)oc2cc(O)cc(O)c12 [kaempferol]	278%	acts in a favorable way	–
O=C(O)CN(CCN(CC(=O)O)CC(=O)O)CC(=O)O [EDTA, ethylenediamine-N,N,N'N'-tetraacetic acid disodium salt]	–	–	Relative activity (%) ([5]; 5 mM EDTA): 12%; Influence on the activity of the present enzyme (in words) [5]: greatly inhibited
O=C1CC(c2ccc(OC(C(=O)O)C(O)C(=O)O)cc2)Oc2cc(OC(C(=O)O)C(O)C(=O)O)cc(O)c21 (centres unmarked) [Example 4 enzyme reaction product II]	–	–	Solubility in solvents [1]: soluble in water, methanol and DMSO
O=C1C[C@@H](c2ccc(O)cc2)Oc2cc(O)cc(O)c21 [naringenin]	194%	acts in a favorable way	–
O=c1cc(-c2ccc(O)cc2)oc2cc(O)cc(O)c12 [apigenin]	92%	acts in a favorable way	–
O=C(O)C(O)C(Oc1cc(O)c2c(=O)cc(-c3ccc(O)cc3)oc2c1)C(=O)O (centres unmarked) [Example 6 enzyme reaction product]	–	–	Solubility in solvents [1]: soluble in water, methanol and DMSO
COc1cc(C(=O)O)ccc1O [vanillic acid]	4%	acts faintly	–
[Cu+2] [Cu^2+]	–	–	Relative activity (%) ([5]; 20 mM metallic ion): 0%; Influence on the activity of the present enzyme (in words) [5]: greatly inhibited
[Ca+2] [Ca^2+]	–	–	Relative activity (%) ([5]; 20 mM metallic ion): 140%; Influence on the activity of the present enzyme (in words) [5]: enhanced
[Mn+2] [Mn^2+]	–	–	Relative activity (%) ([5]; 20 mM metallic ion): 268%; Influence on the activity of the present enzyme (in words) [5]: enhanced

Structure (SMILES)	Relative activity (%) [2]	Action of the enzyme to the phenolic hydroxyl groups of the substrate (in words) [2]	further results
O=C(O)[C@H]1O[C@@H]1C(=O)O (relative stereo) [(±)-trans-epoxysuccinic acid]	–	–	Km [4]: 2580 µM
Cc1cc(=O)oc2cc(O)cc(O)c12 [5,7-dihydroxy-4-methylcoumarin]	107%	acts in a favorable way	–
[Ni+2] [Ni^2+]	–	–	Relative activity (%) ([5]; 20 mM metallic ion): 198%; Influence on the activity of the present enzyme (in words) [5]: enhanced
O=C(O)C(O)C(Oc1cc(O)c2c(c1)O[C@H](c1ccc(O)c(O)c1)[C@@H](O)C2=O)C(=O)O (single isomer, unassigned) [Example 5 enzyme reaction product]	–	–	Solubility in solvents [1]: soluble in water, methanol and DMSO
O=C(O)C(O)C(Oc1cc(O)c2c(=O)c(-c3ccc(O)cc3)coc2c1)C(=O)O (single isomer, unassigned) [2-hydroxy-3-[[5-hydroxy-3-(4-hydroxyphenyl)-4-oxo-4H-1-benzopyran-7-yl]oxy]-butanedioic acid]	–	–	Inhibitory action against histidine decarboxylase (HDC) [3]: prominent inhibitory action
O=C1/C(=C/c2ccc(O)c(O)c2)Oc2cc(O)ccc21 [sulfuretin]	316%	acts in a favorable way	–
O=C(O)C(O)C(Oc1cc(O)c2c(=O)c(-c3ccc(O)cc3)coc2c1O)C(=O)O (single isomer, unassigned) [2-[[5,8-dihydroxy-3-(4-hydroxyphenyl)-4-oxo-4H-1-benzopyran-7-yl]oxy]-3-hydroxy-butanedioic acid]	–	–	Inhibitory action against histidine decarboxylase (HDC) [3]: prominent inhibitory action
O=C1c2c(O)cc(O)cc2O[C@H](c2ccc(O)c(O)c2)[C@H]1O [(+)-taxifolin]	106%	acts in a favorable way	–
[Mg+2] [Mg^2+]	–	–	Relative activity (%) ([5]; 20 mM metallic ion): 220%; Influence on the activity of the present enzyme (in words) [5]: enhanced
O=c1cc(-c2ccccc2)oc2cc(O)c(O)c(O)c12 [baicalein]	321%	acts in a favorable way	–
[Co+2] [Co^2+]	–	–	Relative activity (%) ([5]; 20 mM metallic ion): 236%; Influence on the activity of the present enzyme (in words) [5]: enhanced
O=c1oc2cc(O)ccc2c2oc3cc(O)ccc3c12 [courmestrol]	58%	acts in a favorable way	–
COc1ccc(-c2coc3cc(O)cc(O)c3c2=O)cc1 [biochanin A]	86%	acts in a favorable way	–
[Fe+2] [Fe^2+]	–	–	Relative activity (%) ([5]; 20 mM metallic ion): 125%; Relative activity (%) ([5]; 20 mM metallic ion, listed as Fe^3+): 33%; Influence on the activity of the present enzyme (in words) [5]: enhanced
O=c1cc(CO)occ1O [kojic acid]	4%	acts faintly	–
O=C(/C=C/c1ccc(O)c(O)c1)c1c(O)cc(O)cc1O [2',4',6',3,4-pentahydroxychalcone]	115%	acts in a favorable way	–
O=c1c(-c2ccc(O)cc2)coc2cc(O)ccc12 [daidzein]	52%	acts in a favorable way	–
O=C1CC(c2ccc(O)cc2)Oc2cc(OC(C(=O)O)C(O)C(=O)O)cc(O)c21 (centres unmarked) [Example 4 enzyme reaction product I]	–	–	Solubility in solvents [1]: soluble in water, methanol and DMSO
[Zn+2] [Zn^2+]	–	–	Relative activity (%) ([5]; 20 mM metallic ion): 416%; Influence on the activity of the present enzyme (in words) [5]: enhanced
